Test results as given in article PMC7940618, “Specific inhibition of the Survivin–CRM1 interaction by peptide-modified molecular tweezers” (Nature Communications, 2021).
Values joined by “and” are separate entries in the source; they are usually repeats but may differ in a detail not shown here. Identical values can stand only once. Like-named read-outs stand apart in the source and are kept apart here. Peptide text beside a SMILES is read from it.

Assays:
Assay type in all cases: binding
Survivin120 = target: T1, Survivin120 (Homo sapiens, UniProt O15392); test: ITC titration of tweezers with Survivin120 wildtype; settings: ITC, Survivin120 WT; for Kd: PBS pH 7.4, 25 °C, one set of sites model, mean ± SEM of fit
T1 construct: the only published NMR structure originated from a truncated Survivin (aa 1-120) with improved solubility; GST with PreScission site (N); made in house; host or cells: Escherichia coli soluBL21
T1 sequence (O15392 1-120): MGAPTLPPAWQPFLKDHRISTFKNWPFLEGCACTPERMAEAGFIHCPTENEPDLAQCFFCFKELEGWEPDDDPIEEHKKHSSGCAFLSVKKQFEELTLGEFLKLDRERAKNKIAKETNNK
Experimental: The interaction between the tweezers and Survivin was studied by isothermal titration calorimetry (ITC) and NMR spectroscopy. So far, the only published NMR structure originated from a truncated Survivin (aa 1-120) with improved solubility. […] Since the truncated construct still contains all relevant parts of the protein and gives excellent NMR spectra (SI5), we chose it for all our in vitro experiments and denote it as Survivin120 in the following results.
(§1) ITC was performed with a MicroCal iTC200 from Malvern Panalytical in PBS, pH 7.4 at 25 °C with molecular tweezers in the cell and Survivin120 in the titration syringe. The protein was dialyzed overnight at 4 °C against the PBS buffer. Ligands were dissolved in the respective dialysis buffer. Then, 300 µM TW were titrated with 300 µM Survivin120 WT or 321 µM Survivin120 K90/103T. Then, 100 µM TW-ELTL, TW-ELTLGEFL, or TW-LFEEGLLT was titrated with 1.2 mM Survivin120 WT or 2.5 mM Survivin120 K90/103T. For reverse titrations, either 33.3 or 34.4 µM Survivin120 in the cell was titrated with 5 mM TW or TW-ELTL in the syringe, respectively. All titrations were performed in PBS, pH 7.4 at 25 °C. Then, 1.5 μL injections were used with 120 s spacing time between injections. The injection rate was set to 0.5 µL/s and the reference power was 5 µcal/s. ITC thermograms were fitted to a one set of sites model with the software Origin (v7.0552) provided with the instrument. Heat of dilution was subtracted as constant from each data point.
(§2) ITC thermograms were fitted to a one set of sites model with the software Origin provided with the instrument. Heat of dilution was subtracted as constant from each data point. From three independent experiments (n = 3), one representative example was depicted, and thermodynamic data were derived thereof. For pull-down experiments, only the representative quantification of the depicted western blot is shown. […] Fluorescence anisotropy graphs were generated with GraphPad Prism 5.0. Depicted error bars represent the standard deviation of three independent titrations.

Survivin120 K90/103T = target: T2, Survivin120 K90/103T (Homo sapiens, UniProt O15392, K103T/K90T); test: ITC titration of tweezers with Survivin120 K90/103T mutant
T2 construct: the only published NMR structure originated from a truncated Survivin (aa 1-120) with improved solubility; GST with PreScission site (N); made in house; host or cells: Escherichia coli soluBL21
T2 sequence (O15392 1-120 K90T/K103T): as the sequence (O15392 1-120) above, with K90T, K103T counted along it
From the text: If the tweezer-based inhibitors indeed bind to lysines/arginines flanking the NES (K90, K91, K103, R106), their mutation to, e.g., threonine, should abolish the observed effects. For this reason, we generated double and triple Survivin120 mutants lacking these putative tweezer anchor points. Unfortunately, most double mutants and especially the triple mutants were unfolded as evidenced by 1D ^1H NMR (SI6); finally, the correctly folded double threonine mutant Survivin120 K90/103T was chosen for further investigation. […] Next, binding of FAM-labeled tweezers (SI3) to either Survivin120 wildtype or the K90/103T mutant was studied by fluorescence anisotropy (Fig. 7d–f). […] We conclude that lysines 90 and 103 are indeed essential for efficient tweezer binding.
as §1, §2

[1] = target: T3, GST-Survivin120-K90/103T–CRM1 interaction (Homo sapiens, UniProt O15392, K103T/K90T); test: Pull-down with GST-Survivin120-K90/103T bait, CRM1 and RanQ69L; settings: for CRM1: Peak area determined with ImageJ / CRM1 intensity_normalised on GST-Surv intensity (samples 1-14) / CRM1: Control w/o GST-Survivin subtracted (sample 16 or 23): CRM1 band; for CRM1: Peak area determined with ImageJ / CRM1 intensity_normalised on GST-Surv intensity (samples 1-14) / CRM1: Control w/o GST-Survivin subtracted (sample 16 or 23) / CRM1 intensity_normalised on GST-Surv intensity (samples 1-14) and CRM1 intensity w/o incubation (sample 15 or 22): samples 22-28 (K90/103T); for CRM1: Control w/o GST-Survivin subtracted (sample 16 or 23): sample 23 subtracted; for GST-Surv: Peak area determined with ImageJ / GST-Surv: Control w/o GST-Survivin subtracted (sample 2 or 9): GST-Surv bait band; for GST-Surv: Peak area determined with ImageJ: samples 8-14 (K90/103T according to the summary in r39-r41); for GST-Surv: Control w/o GST-Survivin subtracted (sample 2 or 9): samples 8-14 (K90/103T), sample 9 subtracted; for Normalised CRM1 intensity, summary of replicates I and II: K90/103T, w/o tweezer = 100, replicates I and II
T3 construct: the only published NMR structure originated from a truncated Survivin (aa 1-120) with improved solubility; made in house; host or cells: Escherichia coli soluBL21
T3 sequence (O15392 1-120 K90T/K103T): as the sequence (O15392 1-120) above, with K90T, K103T counted along it
Experimental: Next, we investigated whether tweezer inhibition of the export complex assembly is compromised upon lysine mutations near the NES. Therefore, pull-down experiments were performed with recombinant GST-tagged Survivin120 wildtype and K90/103T as bait proteins, tweezers, recombinant CRM1 and RanQ69L (Fig. 7g). Controls lacking the Survivin baits were included, as well as isolated peptides without tweezer (Fig. 7h). […] However, for the double lysine mutant GST-Survivin120-K90/103T even the tweezer conjugates lost most of their inhibitory power toward the essential Survivin–CRM1 interaction.
All pull-down assays were performed at room temperature in pull-down buffer (PBS, pH 7.4, 1 mM DTT, 0.02 Triton X-100). GST fusion proteins were immobilized on 50 μL GSH-coated Sepharose 4B beads from GE Healthcare. The beads were prior equilibrated and blocked with 500 μL pull-down blocking buffer (PBS, pH 7.4, 1 (w/v) BSA, 1 mM DTT, 0.02 (v/v) Triton X-100) for 1 h to prevent unspecific binding.
For analysis of the effective inhibitory tweezer concentration, 200 μg 293T lysate with overexpressed Survivin142-HA was preincubated without ligand or with different concentrations (10 nM to 200 μM) of unmodified tweezer TW, TW-ELTL, TW-ELTLGEFL, or TW-LFEEGLLT for 1 h and then mixed with 35 μg GST-CRM1, 55 μg RanQ69L, and 2 mM dGTP. GSH-beads were incubated with this protein mixture for 2 h under rotation. For analysis of tweezer specificity, 40 μg GST-Survivin120 or GST-Survivin120-K90/103T point mutant was pre-bound to equilibrated GSH-beads in 500 μL pull-down buffer, containing additionally either no ligand or 50 μM unmodified tweezer TW, TW-ELTL, TW-ELTLGEFL, or peptides ELTL and ELTLGEFL, for 1 h under rotation. After washing and blocking, GSH-beads were incubated with a protein mixture consisting of 2 mM dGTP, 50 μg CRM1, and 50 μg RanQ69L for 2 h under rotation.
Samples of input and beads taken during pull-down experiments were ran on 12.5 SDS gels and transferred onto 0.2 µM PVDF membranes (Amersham Hybond P 0.2) using a PerfectBlue™ tank electro blotter (Peqlab) at 350 mA for 150 min. Membranes were blocked for 1 h using 5% milk powder in TBS buffer containing 0.1% Tween-20. Next, membranes were incubated in primary antibodies against HA (anti-HA, mouse monoclonal, BioLegend, Covance MMS-101R, 1:1,000), GST (anti-GST, mouse monoclonal, Santa Cruz Biotechnology Inc., sc-57753, 1:1000) or CRM1 (anti-CRM1, rabbit polyclonal, Novus Biologicals Ltd., NB100-79802, 1:10,000) overnight at 4 °C. Secondary horseradish peroxidase (HRP)-conjugated antibody (anti-mouse IgG-HRP, sheep, GE Healthcare, NXA931 or anti-rabbit IgG-HRP, donkey, GE Healthcare, NA934) was then added (1:10,000) for 1 h at room temperature. Chemiluminescence was detected and imaged using the Pierce ECL Plus Western Blotting Substrate kit (Thermo Fisher Scientific) and Chemidoc system (Bio-Rad) or film processor Cawomat 2000 IR (CAWO). Western blots were analyzed by densitometric analysis with ImageJ version 1.52p (U.S. National Institutes of Health), measuring the mean gray intensity of protein bands. Uncropped and unprocessed scans of western blots are deposited in the Source Data file.

[2] = fraction of sample 22 (w/o tweezer)

| SMILES | -TΔS (Survivin120) [kcal] | ΔG (Survivin120) [kcal] | ΔH (Survivin120) [kcal] | Kd (Survivin120) [µM] | ΔH (Survivin120 K90/103T; ITC, Survivin120 K90/103T) [kcal] | Kd (Survivin120 K90/103T; ITC, Survivin120 K90/103T, PBS pH 7.4, 25 °C, one set of sites model, read-out: KD) [µM] | CRM1: Peak area determined with ImageJ [1] | CRM1 intensity_normalised on GST-Surv intensity (samples 1-14) [1] | CRM1: Control w/o GST-Survivin subtracted (sample 16 or 23) [1] | GST-Surv: Peak area determined with ImageJ [1] | GST-Surv: Control w/o GST-Survivin subtracted (sample 2 or 9) [1] | Normalised CRM1 intensity, summary of replicates I and II [1] | CRM1 intensity_normalised on GST-Surv intensity (samples 1-14) and CRM1 intensity w/o incubation (sample 15 or 22) [1, 2] | CRM1 intensity_normalised on GST-Surv intensity (samples 1-14) and CRM1 intensity w/o incubation (sample 15 or 22) ([1]; w/o tweezer = 100) [%] | Kd (Survivin120 K90/103T) [µM] |
| --- | --- | --- | --- | --- | --- | --- | --- | --- | --- | --- | --- | --- | --- | --- | --- |
| O=P(O)(O)Oc1c2c(c(OP(=O)(O)O)c3c1C1CC3c3cc4c(cc31)C1CC4c3ccccc31)C1CC2c2cc3c(cc21)C1CC3c2ccccc21 [TW, reference compound] | -4.7 | -6.0 | -1.3 | 38 | -0.6 | 49 ± 5 | 39038.4 | 0.5728 | 34329.1 | 62533.1 | 59934 | 90.4067% | 0.9041 | 90.4067 | – |
| CC(C)C[C@H](NC(=O)[C@H](Cc1ccccc1)NC(=O)[C@H](CCC(=O)O)NC(=O)CNC(=O)[C@H](CC(C)C)NC(=O)[C@@H](NC(=O)[C@H](CC(C)C)NC(=O)[C@H](CCC(=O)O)NC(=O)Cn1cc(CCOP(=O)(O)Oc2c3c(c(OP(=O)(O)O)c4c2C2CC4c4cc5c(cc42)C2CC5c4ccccc42)C2CC3c3cc4c(cc32)C2CC4c3ccccc32)nn1)[C@@H](C)O)C(=O)O [TW-ELTLGEFL] (HELM PEPTIDE1{[O=C(Cn1cc(CCOP(=O)(O)Oc2c3c(c(OP(=O)(O)O)c4c2C2CC4c4cc5c(cc42)C2CC5c4ccccc42)C2CC3c3cc4c(cc32)C2CC4c3ccccc32)nn1)[*:2]].E.L.T.L.G.E.F.L}$$$$V2.0) | – | – | – | 19 | – | – | – | – | – | – | – | 109.825% and 111.087% | – | 109.825 | 36 ± 10 |
| CC(C)C[C@H](NC(=O)[C@@H](NC(=O)[C@H](CC(C)C)NC(=O)[C@H](CCC(=O)O)NC(=O)Cn1cc(CCOP(=O)(O)Oc2c3c(c(OP(=O)(O)O)c4c2[C@H]2C[C@@H]4c4cc5c(cc42)[C@H]2C[C@@H]5c4ccccc42)[C@H]2C[C@@H]3c3cc4c(cc32)[C@H]2C[C@@H]4c3ccccc32)nn1)[C@@H](C)O)C(=O)O [TW-ELTL] | -3.8 | -6.3 | -2.5 | 24 | -1.3 | – | 11197.5 | 0.3807 | 6488.31 | 19643.8 | 17044.7 | 60.0833% | 0.6008 | 60.0833 | 50 ± 10 |
